Assay results from patent EP0965346A2, “Use of acetylated mannan derivatives for treating chronic respiratory diseases” (CARRINGTON LABORATORIES, INC., priority 1991, dated 1993).

Key:
[1] = test system: HTLV-IIIB strain of HIV-1; assay: Viability (MTT) of HIV-1-infected MT-2 cells, AZT-acemannan checkerboard; type: cell-based
Description: Virus Strains - The HTLV-IIIB strain of HIV-1 was obtained from Dr. R. Gallo, NIH, Bethesda, Maryland. Viral stocks were prepared by propagating the virus in H9 lymphoid cells. A stock preparation of the virus was stored at -80°C. The 50% tissue culture infective dose (TCID50)/ml of cell-free virus pool stock was determined by end-point titration using MT-2 cells. Multiplicity of infection (MOI) was determined by the method of Reed and Muench.
Cell Lines - MT-2 cells were propagated in RPMI-1640 supplemented with 2 mM L-glutamine and 15% (v/v) fetal bovine serum. MT-2 cells naturally express CD4 on their surface and are thus good target cells for HIV-1 infection. In addition, they rapidly undergo cytolysis at low levels of virus replication.
Primary testing of antiviral activity - MT-2 cells were first treated with polybrene (2 mg/ml) for 30 min and then infected with HIV at a MOI of 0.03. After virus absorption, the cells were pelleted and resuspended in complete medium. […] Parallel assays were performed in triplicate, and drug cytotoxicity was measured at parallel concentrations in duplicate. […] On day 7 post-infection, cell viability was measured by the addition of MTT (450 µg/ml) to the test plates. […] Plates were read at a wavelength of 570 nm on a Vmax plate reader (Molecular Devices, Inc.). The percent change in cell viability was calculated using the following formula: % change in cell viability =((TI-TO)-(OI-TO))/((OO-TO)-(OI-TO))x 100 [formula] where: • TI is the optical density (OD) in treated, infected cells, • TO is the OD in treated, uninfected cells, • OI is the OD in untreated, infected cells, and • OO is the OD in untreated, uninfected cells.
Antiviral activity of acemannan-AZT combinations - Antiviral activity of acemannan in combination with AZT at various concentrations was evaluated using the microtiter infection assay described above. […] Combinations were evaluated in duplicate, and treated uninfected controls were used to determine drug cytotoxicity. Each compound was also evaluated alone at non-cytotoxic concentrations. […]

HIV = assay: Phase II double-blind study of acemannan alone and with AZT; type: in vivo; conditions: ARC patients, 24 weeks
Description: Forty-seven HIV+ patients (23 asymptomatic patients, 24 ARC patients) participated in a double-blind randomized phase II study of acemannan. The protocol was approved by the relevant ethical committees of the Hospital St. Pierre in Brussels, Belgium. In order to evaluate safety and tolerance, with or without concomitant AZT therapy, acemannan was administered during 24 weeks at a daily dose of 1000 mg (2 capsules of 125 mg, 4 times daily). The 23 asymptomatic patients were blindly allocated to receive either acemannan (11 patients, group 1) or placebo (12 patients, group 2). Of the 24 ARC patients who received 1000 mg AZT daily during the study, 12 patients (group 3) also received acemannan 1000 mg (2 capsules of 125 mg, 4 times daily) and 12 patients (group 4) also received placebo.

Compound: Cc1cn([C@H]2C[C@H](N=[N+]=[N-])[C@@H](CO)O2)c(=O)[nH]c1=O [AZT, Zidovudine]
- protection ([1]; 0.01 µg/ml AZT alone): neither of which was protective on its own
- protection ([1]; 0.32 µg/ml AZT alone): 65%
- maximum protection ([1]; AZT alone, 0.03 to 0.32 µg/ml, MOI 0.03): 60-67%
- patients who developed AIDS (HIV; 12 per group): 2 patients
- mean Karnofsky score at exit (HIV; AZT 1000 mg daily, acemannan 1000 mg daily, entry 84 (combination), 81 (AZT alone)): 83
- mean CD4 at exit (HIV; entry 263/mm3 (combination), 145/mm3 (AZT alone)): 252 /mm3
